Source: patent US7005425B2, “Method for treating arrhythmias” (CV Therapeutics, Inc., priority 2002, dated 2006)

Assays:
awake rats = experiment: Telemetry studies of heart rate in awake rats; assay type: in vivo, Rats (Sprague Dawley); settings: CVT-510 20 μg/kg ip alone
Experimental: Rats (Sprague Dawley) weighing 300–400 gms were purchased from Simonsen laboratories. CVT-3619 was dissolved in DMSO and further diluted in saline. CVT-510 was dissolved in saline. Ketamine was purchased from Fort Dodge Animal Health, Xylazine from Bayer and Acepromazine Maleate from Fermenta Animal Health Co. Metoprolol and propranolol were purchased from SIGMA. Esmolol was obtained from a local pharmacy.
For these studies, rats were instrumented with radiotelemetered transmitters (Data Sciences) at least 3 weeks prior to experimentation. Animals were anesthetized by peritoneal injection of a “cocktail” (1 ml/kg) containing Ketamine (75 mg/ml), Xylazine (5 mg/ml), and Acepromazine (1 mg/ml). After 20–30 minutes of induction of anesthesia, a midline laparotomy was performed. The transmitter for recordings of ECG, blood pressure and body temperature was placed in the abdominal cavity, and secured to the abdominal muscles. Two electrocardiographic leads were tunneled through the subcutaneous—one toward the upper left shoulder and the other to the right thigh, and secured with sutures. A fluid filled sensor catheter was inserted in the descending aorta above the iliac bifurcation for measurement of blood pressure. The tip of the telemetry catheter was located in the abdominal aorta just caudal to the renal arteries. Once the transmitter and leads were in place and determined to be functioning properly, the abdominal wall was sutured. After recovery from anesthesia, the rats were housed individually in cages placed on their respective receivers. The ECG, blood pressure and temperature were recorded and heart rate measured by a Dataquest ART Gold system (Version 2.2; Data Sciences Intl). The system consisted of a transmitter, i.e., biopotential sensor (Model TL11M2-C50-PXT), receivers (Model RPC-1), a consolidation matrix (BCM 100), a personal computer (Compaq DeskPro Series 3574) and Dataquest 4 software. Heart rate, blood pressure and temperature were measured at 5-minute intervals. Each recording lasted 10 seconds and all cardiac cycles within this period were averaged. Animals were given various drugs in a randomized manner after recording the baseline data for at least two hours.
A subgroup of animals was implanted with osmotic pumps containing CVT-510 for combination experiments. […]
The slowing of heart rate caused by each treatment was quantified by determining the area under the curve (AUC), using the trapezoidal method for calculations. Data used for analysis was the area under/over the curve calculated using change form baseline data (untreated animals). The data was analyzed for the magnitude as well as the duration of bradycardia caused by each treatment. […]

[1] = Plasma concentrations of CVT-510 in rats (LC-MS-MS); assay type: in vivo, Rats (Sprague Dawley); settings: subcutaneous osmotic pump, 20 μg/kg/hr
Source text: A subgroup of animals was implanted with osmotic pumps containing CVT-510 for combination experiments. After 7 days or more of having been implanted with radio-telemetry transmitters for recording ECG (L-2), and verifying that the transmitters were functioning, each rat was implanted with an Alzet mini-osmotic pump. Under anesthesia (see above) and sterile conditions, one Alzet mini-osmotic pump, was implanted subcutaneously (SC) in the interscapular area of each rat. The osmotic pumps were filled with either vehicle or CVT-510 (to deliver a dose of 20 μg/kg/hr).
Carotid artery was catheterized to obtain serial blood samples for the analysis of CVT-510 plasma concentrations. Animals were anesthetized by peritoneal injection of a “cocktail” (1 ml/kg) containing Ketamine (75 mg/ml), Xylazine (5 mg/ml), and Acepromazine (1 mg/ml). After a 20–30 min. of induction of anesthesia, a midline incision was made in the neck region to expose the external carotid artery. […]
CVT-510 plasma level analysis was performed as follows. […] Concentration of CVT-510 in protein precipitation filtrates were analyzed by LC-MS-MS using a Waters Alliance 2690 HPLC system (Millford, Mass.) coupled to a Waters/Micromass Quattro Ultima triple quadrupole mass spectrometer (Millford, Mass.). […]

anesthetized guinea pigs = experiment: PR interval (AV nodal conduction) in anesthetized, paced guinea pigs; assay type: in vivo; settings: CVT-510 0.5 μg/kg iv bolus
Source text: Male guinea pigs weighing 400–450 gm were obtained from Simonsen labs and housed in the institutional laboratory animal facility. Animals were anesthetized with isoflurane in the anesthetizing chamber. After determining (by toe pinch) that the animal is adequately anesthetized, the animals was intubated with an endotracheal tube and ventilated with isoflurane and oxygen mixture using anesthesia workstation. Using sterile equipment and aseptic technique, the right carotid artery was exposed and a catheter inserted for recording of blood pressure (BP). A quadripolar electrode catheter was introduced via the right jugular vein and positioned in the right atrium and ventricle for atrial and ventricular pacing. The hearts were paced at a constant rate (330–360 bpm) to eliminate the effect of heart rate variability between animals. Another catheter was inserted into the left jugular vein and positioned in the right atrium for the administration of drugs and saline. Subcutaneous needles were used as standard electrocardiographic leads to record the electrocardiogram (ECG). After completion of surgery and instrumentation, a 20 min equilibration period was allowed before beginning the experimental protocol. […] When the two agents were given in combination the PR interval was increased up to 15 msec. […] Esmolol was administered at three different infusion rates. […]

plasma concentration of CVT-510 [1]: 7.5 ± 1 ng/mL
SMILES: OC[C@H]1O[C@@H](n2cnc3c(N[C@@H]4CCOC4)ncnc32)[C@H](O)[C@@H]1O [CVT-510, 6-(3-(R)-aminotetrahydrofuranyl)purine riboside]
effect on heart rate (FIG. 3) (awake rats): transiently lowers the heart rate below baseline levels
effect on heart rate (FIG. 4) (awake rats): slowed the heart rate in a dose dependent manner
increase of PR interval (FIG. 9) (anesthetized guinea pigs): 5 ms
